Measured values reported in PubChem BioAssay AID2060496 (Molecular Pharmacology Branch, DTP, NCI, 2025).

Tested on: 276233-004-R-J1-PDC complex spheroid viability
Test: Anticancer human tumor 276233-004-R-J1-PDC patient-derived colon adenocarcinoma cell line growth inhibition [GQUAD]
Conditions: for IC50: curve of first compound; for viability, T/C: stronger effect = lower value
Summary of the method: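 Tumor cells were grown as complex spheroids with HUVEC endothelial cells and mesenchymal stem cells as stroma. G-quadruplex stabilizers were combined with targeted agents over half-log dilutions from near the clinical Cmax, or from 10 microM.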

[1] = second compound 0.0316 µM, first compound 0.0316 µM
[2] = second compound 0.0316 µM, first compound 0.1 µM
[3] = second compound 0.0316 µM, first compound 0.316 µM
[4] = second compound 0.0316 µM, first compound 1 µM
[5] = second compound 0.0316 µM, first compound 3.16 µM
[6] = second compound 0.0316 µM, first compound 10 µM
[7] = second compound 0.1 µM, first compound 0.0316 µM
[8] = second compound 0.1 µM, first compound 0.1 µM
[9] = second compound 0.1 µM, first compound 0.316 µM
[10] = second compound 0.1 µM, first compound 1 µM
[11] = second compound 0.1 µM, first compound 3.16 µM
[12] = second compound 0.1 µM, first compound 10 µM
[13] = second compound 0.316 µM, first compound 0.0316 µM
[14] = second compound 0.316 µM, first compound 0.1 µM
[15] = second compound 0.316 µM, first compound 0.316 µM
[16] = second compound 0.316 µM, first compound 1 µM
[17] = second compound 0.316 µM, first compound 3.16 µM
[18] = second compound 0.316 µM, first compound 10 µM
[19] = second compound 1 µM, first compound 0.0316 µM
[20] = second compound 1 µM, first compound 0.1 µM
[21] = second compound 1 µM, first compound 0.316 µM
[22] = second compound 1 µM, first compound 1 µM
[23] = second compound 1 µM, first compound 3.16 µM
[24] = second compound 1 µM, first compound 10 µM
[25] = second compound 3.16 µM, first compound 0.0316 µM
[26] = second compound 3.16 µM, first compound 0.1 µM
[27] = second compound 3.16 µM, first compound 0.316 µM
[28] = second compound 3.16 µM, first compound 1 µM
[29] = second compound 3.16 µM, first compound 3.16 µM
[30] = second compound 3.16 µM, first compound 10 µM
[31] = second compound 10 µM, first compound 0.0316 µM
[32] = second compound 10 µM, first compound 0.1 µM
[33] = second compound 10 µM, first compound 0.316 µM
[34] = second compound 10 µM, first compound 1 µM
[35] = second compound 10 µM, first compound 3.16 µM
[36] = second compound 10 µM, first compound 10 µM
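Note: spheroids exposed to drugs for seven days.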
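Throughout, for viability, T/C: 100% = DMSO vehicle control viability.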

With `COc1ncnc(C2CC2)c1-c1ncc2cnn(Cc3ccc(-c4nc(C(F)(F)F)cn4C(C)C)cc3)c2n1` + Cc1cnc(CNC(=O)c2c(=O)c3ccc(N4CCCN(C)CC4)nc3n3c2sc2ccccc23)cn1 the IC50 (second compound 0.0316 µM) was over 10 µM, the IC50 (second compound 0.1 µM) was over 10 µM and the IC50 (second compound 0.316 µM) was over 10 µM. For the same molecule, the IC50 (second compound 1 µM) was over 10 µM, the IC50 (second compound 3.16 µM) was over 10 µM and the IC50 (second compound 10 µM) was over 10 µM. It also gave a viability, T/C [1] of 81.9%, a viability, T/C [2] of 77.1% and a viability, T/C [3] of 66.1%. It also gave a viability, T/C [4] of 79.7%, a viability, T/C [5] of 86.2% and a viability, T/C [6] of 89%. The viability, T/C [7] was 76.2%, the viability, T/C [8] was 95.5% and the viability, T/C [9] was 83%. For the same molecule, the viability, T/C [10] was 84.2%, the viability, T/C [11] was 76.9% and the viability, T/C [12] was 84.5%. The viability, T/C [13] was 87.3%, the viability, T/C [14] was 91.2% and the viability, T/C [15] was 83.4%. For the same molecule, the viability, T/C [16] was 87.9%, the viability, T/C [17] was 78.4% and the viability, T/C [18] was 86.4%. The viability, T/C [19] was 84.6%, the viability, T/C [20] was 81.4% and the viability, T/C [21] was 81.5%. For the same molecule, the viability, T/C [22] was 74.5%, the viability, T/C [23] was 74.8% and the viability, T/C [24] was 89.6%. For the same molecule, the viability, T/C [25] was 76.1%, the viability, T/C [26] was 65.1% and the viability, T/C [27] was 80.5%. The viability, T/C [28] was 62.4%, the viability, T/C [29] was 64.5% and the viability, T/C [30] was 75.5%. The viability, T/C [31] was 67.9%, the viability, T/C [32] was 60.9% and the viability, T/C [33] was 64.3%. For the same molecule, the viability, T/C [34] was 62.9%, the viability, T/C [35] was 69.6% and the viability, T/C [36] was 65.2%.
`O=C(c1cc(Cc2n[nH]c(=O)c3ccccc23)ccc1F)N1CCN(C(=O)C2CC2)CC1` + Cc1[nH]c2ccc(F)cc2c1-c1nc2c3cccnc3c3ncccc3c2[nH]1 showed an IC50 (second compound 0.0316 µM) of over 10 µM, an IC50 (second compound 0.1 µM) of over 10 µM and an IC50 (second compound 0.316 µM) of over 10 µM. For the same molecule, the IC50 (second compound 1 µM) was over 10 µM, the IC50 (second compound 3.16 µM) was over 10 µM and the IC50 (second compound 10 µM) was under 0.0316 µM. The viability, T/C [1] was 108%, the viability, T/C [2] was 95.4% and the viability, T/C [3] was 92.5%. The viability, T/C [4] was 73.3%, the viability, T/C [5] was 95.1% and the viability, T/C [6] was 83.4%. For the same molecule, the viability, T/C [7] was 83.6%, the viability, T/C [8] was 90.4% and the viability, T/C [9] was 92%. It also gave a viability, T/C [10] of 90.4%, a viability, T/C [11] of 91.6% and a viability, T/C [12] of 101%. For the same molecule, the viability, T/C [13] was 75.4%, the viability, T/C [14] was 86.2% and the viability, T/C [15] was 85%. It also gave a viability, T/C [16] of 91.1%, a viability, T/C [17] of 85.9% and a viability, T/C [18] of 81.4%. For the same molecule, the viability, T/C [19] was 69%, the viability, T/C [20] was 79.5% and the viability, T/C [21] was 77.4%. The viability, T/C [22] was 69.7%, the viability, T/C [23] was 64.4% and the viability, T/C [24] was 83.2%. For the same molecule, the viability, T/C [25] was 51.5%, the viability, T/C [26] was 64.2% and the viability, T/C [27] was 55.7%. For the same molecule, the viability, T/C [28] was 55%, the viability, T/C [29] was 56.3% and the viability, T/C [30] was 59.6%. The viability, T/C [31] was 48.8%, the viability, T/C [32] was 50.9% and the viability, T/C [33] was 44.7%. It also gave a viability, T/C [34] of 50.3%, a viability, T/C [35] of 55% and a viability, T/C [36] of 51%.
Molecule `O=c1[nH]cc(F)c(=O)[nH]1` + CN(C)c1ccc(Nc2c3ccc(NC(=O)CCN4CCCC4)cc3nc3cc(NC(=O)CCN4CCCC4)ccc23)cc1 has an IC50 (second compound 0.0316 µM) of over 10 µM, an IC50 (second compound 0.1 µM) of over 10 µM and an IC50 (second compound 0.316 µM) of over 10 µM. It also gave an IC50 (second compound 1 µM) of over 10 µM, an IC50 (second compound 3.16 µM) of over 10 µM and an IC50 (second compound 10 µM) of over 10 µM. It also gave a viability, T/C [1] of 93.7%, a viability, T/C [2] of 83.7% and a viability, T/C [3] of 108%. The viability, T/C [4] was 108%, the viability, T/C [5] was 90.2% and the viability, T/C [6] was 103%. The viability, T/C [7] was 92%, the viability, T/C [8] was 76.5% and the viability, T/C [9] was 80.5%. The viability, T/C [10] was 88.5%, the viability, T/C [11] was 75.1% and the viability, T/C [12] was 103%. The viability, T/C [13] was 69.1%, the viability, T/C [14] was 62.3% and the viability, T/C [15] was 60.1%. It also gave a viability, T/C [16] of 61%, a viability, T/C [17] of 72.2% and a viability, T/C [18] of 61.8%. For the same molecule, the viability, T/C [19] was 66.8%, the viability, T/C [20] was 62.9% and the viability, T/C [21] was 63.7%. The viability, T/C [22] was 66.2%, the viability, T/C [23] was 52.2% and the viability, T/C [24] was 59.3%. It also gave a viability, T/C [25] of 59.3%, a viability, T/C [26] of 58.5% and a viability, T/C [27] of 54.9%. The viability, T/C [28] was 57.9%, the viability, T/C [29] was 69.8% and the viability, T/C [30] was 62.4%. For the same molecule, the viability, T/C [31] was 49.8%, the viability, T/C [32] was 54.9% and the viability, T/C [33] was 51.5%. It also gave a viability, T/C [34] of 46.1%, a viability, T/C [35] of 51.3% and a viability, T/C [36] of 59.1%.
